# In PMC9611598, “Cyclodextrin Derivatives as Promising Solubilizers to Enhance the Biological Activity of Rosmarinic Acid” (Pharmaceutics, 2022):
# Columns and labels:
# [1] = target: AChE (acetylcholinesterase); experiment: Ellman assay, […] nm; type: biochemical; settings: acetylthiocholine iodide, DTNB, Tris-HCl pH 8.0, room temperature; RA in DMSO, 2.5-25 mg/mL test solutions, 20 µL per well; value may refer to prepared solution, not final well concentration
# tyrosinase = target: T1, tyrosinase; experiment: L-DOPA oxidation, […] nm; type: biochemical; settings: 2.0 mM L-DOPA stock, phosphate buffer pH 6.8, room temperature; RA in 50% DMSO, 0.05-2.5 mg/mL test solutions, 25 µL per well; value may refer to prepared solution, not final well concentration
# T1 construct: gene PPO3; mushroom tyrosinase is a guess from usual assay practice
structure (smiles),measurement,setting,value
"O=C(/C=C/c1ccc(O)c(O)c1)O[C@H](Cc1ccc(O)c(O)c1)C(=O)O [RA, rosmarinic acid]",IC50,[1],8983 ± 162 µg/mL
same,IC50,tyrosinase,1591 ± 77 µg/mL
